Measured values reported in US7135466B2 (Kirin Beer Kabushiki Kaisha, priority 1999, dated 2006).

What was measured:
PDGF-Ra = molecular target: T1, PDGF-Ra (Homo sapiens, UniProt P16234); experiment: Inhibitory activity against PDGF-Ra phosphorylation by PDGF-AA stimulation using G292; type: cell-based; details: for IC50: > means inhibition at indicated concentration not more than 50%, < and << not less than 50%, read-out: PDGF (E) IC50; for inhibition at 0.1 µM: G292, figure within parentheses in >100( ), at 100 nM, read-out: PDGF (E) inhibition (%) at 100 nM
T1 construct: host or cells: G-292 human osteosarcoma cells
T1 sequence (P16234 24-1089): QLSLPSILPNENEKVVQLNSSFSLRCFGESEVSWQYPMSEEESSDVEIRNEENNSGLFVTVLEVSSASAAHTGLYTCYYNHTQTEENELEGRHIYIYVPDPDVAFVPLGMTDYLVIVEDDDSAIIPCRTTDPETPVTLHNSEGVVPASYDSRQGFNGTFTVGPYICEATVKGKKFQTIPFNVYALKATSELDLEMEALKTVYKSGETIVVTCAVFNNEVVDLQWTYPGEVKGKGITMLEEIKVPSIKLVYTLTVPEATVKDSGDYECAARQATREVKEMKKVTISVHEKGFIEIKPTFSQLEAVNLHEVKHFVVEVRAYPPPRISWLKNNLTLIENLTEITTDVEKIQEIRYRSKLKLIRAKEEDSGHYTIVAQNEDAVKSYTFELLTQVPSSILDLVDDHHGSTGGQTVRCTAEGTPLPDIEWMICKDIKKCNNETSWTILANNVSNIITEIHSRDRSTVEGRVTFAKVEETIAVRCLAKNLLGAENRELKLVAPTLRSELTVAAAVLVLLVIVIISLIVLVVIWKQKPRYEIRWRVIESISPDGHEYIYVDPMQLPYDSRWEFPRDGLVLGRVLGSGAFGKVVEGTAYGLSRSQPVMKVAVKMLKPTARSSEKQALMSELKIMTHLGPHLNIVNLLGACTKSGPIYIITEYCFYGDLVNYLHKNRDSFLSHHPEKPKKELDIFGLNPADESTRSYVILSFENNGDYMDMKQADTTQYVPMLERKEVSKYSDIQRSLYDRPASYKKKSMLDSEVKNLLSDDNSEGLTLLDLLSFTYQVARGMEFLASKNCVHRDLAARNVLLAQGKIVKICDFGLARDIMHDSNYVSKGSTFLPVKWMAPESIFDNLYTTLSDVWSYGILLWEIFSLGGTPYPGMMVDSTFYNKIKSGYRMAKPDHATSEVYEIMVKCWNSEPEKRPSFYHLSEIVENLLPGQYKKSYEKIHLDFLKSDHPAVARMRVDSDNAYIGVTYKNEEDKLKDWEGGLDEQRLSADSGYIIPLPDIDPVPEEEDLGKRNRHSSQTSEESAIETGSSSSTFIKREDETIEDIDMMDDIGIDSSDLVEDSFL
Outline: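 Cells seeded in low-serum medium are exposed to test compound for one hour, then PDGF-AA (50 ng/ml) triggers receptor phosphorylation for 5 min at 37 °C. Phospho-PDGF-Ra in solubilized cells is quantified by anti-phosphotyrosine capture ELISA at 450 nm.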

c-kit = molecular target: T2, c-kit (Homo sapiens, UniProt P10721); experiment: Inhibitory activity against c-kit autophosphorylation (MO7e cells, h-SCF); type: cell-based; details: for IC50: MO7e cells, 50 ng/ml h-SCF, read-out: c-kit IC50; for inhibition at 1 µM: Mo7e, figure within parentheses in −( ) or >1000( ), at 1000 nM
T2 construct: MO7e (human megakaryocytic leukemia cell line) which had been arrested for 20 hr; endogenous in cells; host or cells: MO7e human megakaryocytic leukemia cell line
T2 sequence (P10721 26-976): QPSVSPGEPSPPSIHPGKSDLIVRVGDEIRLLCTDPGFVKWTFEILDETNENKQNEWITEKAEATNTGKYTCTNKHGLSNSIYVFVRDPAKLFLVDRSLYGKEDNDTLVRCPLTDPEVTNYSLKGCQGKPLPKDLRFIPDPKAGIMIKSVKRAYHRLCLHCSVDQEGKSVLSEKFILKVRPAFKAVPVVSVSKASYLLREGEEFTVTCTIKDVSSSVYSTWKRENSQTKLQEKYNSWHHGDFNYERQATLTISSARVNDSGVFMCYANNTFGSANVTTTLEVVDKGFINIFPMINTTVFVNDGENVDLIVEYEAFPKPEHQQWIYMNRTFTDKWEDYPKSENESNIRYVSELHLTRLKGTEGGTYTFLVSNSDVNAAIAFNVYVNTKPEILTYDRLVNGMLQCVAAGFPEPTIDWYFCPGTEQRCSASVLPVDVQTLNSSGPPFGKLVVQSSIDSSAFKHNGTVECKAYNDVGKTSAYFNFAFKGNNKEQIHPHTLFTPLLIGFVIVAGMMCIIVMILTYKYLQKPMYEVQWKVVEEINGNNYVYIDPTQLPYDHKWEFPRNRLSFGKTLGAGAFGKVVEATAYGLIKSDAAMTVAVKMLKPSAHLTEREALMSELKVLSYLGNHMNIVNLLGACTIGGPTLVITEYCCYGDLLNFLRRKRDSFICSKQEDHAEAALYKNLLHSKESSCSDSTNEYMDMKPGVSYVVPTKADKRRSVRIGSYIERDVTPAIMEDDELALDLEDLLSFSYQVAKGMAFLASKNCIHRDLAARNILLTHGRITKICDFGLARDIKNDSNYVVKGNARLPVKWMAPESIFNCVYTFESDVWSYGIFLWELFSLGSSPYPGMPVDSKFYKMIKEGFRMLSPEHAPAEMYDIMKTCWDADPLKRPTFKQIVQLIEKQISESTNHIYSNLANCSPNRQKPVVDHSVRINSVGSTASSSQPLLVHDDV
Outline: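 In this cellular autophosphorylation assay, compound-treated MO7e cells (1 hr) were challenged with human stem cell factor at 50 ng/ml for 5 min; detection relied on PY-20 capture and anti-c-kit/HRP immunodetection at 450 nm.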

IC50 (PDGF-Ra) | IC50 (c-kit) | inhibition at 0.1 µM (PDGF-Ra) | inhibition at 1 µM (c-kit) | SMILES
< 10 nM | 519 nM | – | – | COc1cc2nccc(Oc3ccc(NC(=O)NCCN4CCCC4)c(C)c3C)c2cc1OC [Example 620, N-{4-[(6,7-Dimethoxy-4-quinolyl)oxy]-2,3-dimethylphenyl}-N′-(2-tetrahydro-1H-1-pyrrolylethyl)urea]
90 nM | 632 nM | – | – | CCN(CC)CCNC(=O)Nc1cc(C)c(Oc2ccnc3cc(OC)c(OC)cc23)cc1C [Example 623, N-[2-(Diethylamino)ethyl]-N′-{4-[(6,7-dimethoxy-4-quinolyl)oxy]-2,5-dimethylphenyl}urea]
34 nM | 436 nM | – | – | CCN(CC)CCNC(=O)Nc1ccc(Oc2ccnc3cc(OC)c(OC)cc23)c(C)c1C [Example 624, N-[2-(Diethylamino)ethyl]-N′-{4-[(6,7-dimethoxy-4-quinolyl)oxy]-2,3-dimethylphenyl}urea]
> 100 nM | 596 nM | 31% | – | COc1cc2nccc(Oc3cc(C)c(NC(=O)NCCN(C)C)cc3C)c2cc1OC [Example 625, N-{4-[(6,7-Dimethoxy-4-quinolyl)oxy]-2,5-dimethylphenyl}-N′-[2-(dimethylamino)ethyl]urea]
49 nM | 339 nM | – | – | COc1cc2nccc(Oc3ccc(NC(=O)NCCN(C)C)c(C)c3C)c2cc1OC [Example 626, N-{4-[(6,7-Dimethoxy-4-quinolyl)oxy]-2,3-dimethylphenyl}-N′-[2-(dimethylamino)ethyl]urea]
65 nM | 774 nM | – | – | COc1cc2ncnc(Oc3ccc(NC(=O)NCCN(C)C)cc3)c2cc1OC [Example 627, N-{4-[(6,7-Dimethoxy-4-quinazolinyl)oxy]phenyl}-N′-[2-(dimethylamino)ethyl]urea]
< 10 nM | 81 nM | – | – | COc1cc2nccc(Oc3ccc(NC(=O)NCCN4CCOCC4)cc3)c2cc1OC [Example 628, N-{4-[(6,7-Dimethoxy-4-quinolyl)oxy]phenyl}-N′-(2-morpholinoethyl)urea]
< 10 nM | 481 nM | – | – | COc1cc2ncnc(Oc3ccc(NC(=O)NCCN4CCOCC4)cc3)c2cc1OC [Example 629, N-{4-[(6,7-Dimethoxy-4-quinazolinyl)oxy]phenyl}-N′-(2-morpholinoethyl)urea]
36 nM | – | – | 23% | CCN(CC)CCNC(=O)Nc1ccc(Oc2ncnc3cc(OC)c(OC)cc23)cc1OC [Example 630, N-[2-(Diethylamino)ethyl]-N′-{4-[(6,7-dimethoxy-4-quinazolinyl)oxy]-2-methoxyphenyl}urea]
39 nM | 186 nM | – | – | COc1cc(Oc2ncnc3cc(OC)c(OC)cc23)ccc1NC(=O)NCCN1CCOCC1 [Example 631, N-{4-[(6,7-Dimethoxy-4-quinazolinyl)oxy]-2-methoxyphenyl}-N′-(2-morpholinoethyl)urea]
36 nM | 223 nM | – | – | COc1cc(Oc2ncnc3cc(OC)c(OC)cc23)ccc1NC(=O)NCCN1CCCC1 [Example 632, N-{4-[(6,7-Dimethoxy-4-quinazolinyl)oxy]-2-methoxyphenyl}-N′-(2-tetrahydro-1H-1-pyrrolylethyl)urea]
58 nM | – | – | 28% | COc1cc(Oc2ncnc3cc(OC)c(OC)cc23)ccc1NC(=O)NCCCN1CCN(C)CC1 [Example 633, N-{4-[(6,7-Dimethoxy-4-quinazolinyl)oxy]-2-methoxyphenyl}-N′-[3-(4-methylpiperazino)-propyl]urea]
> 100 nM | – | 40% | 13% | COc1cc2nccc(Oc3cc(C)c(NC(=O)NC4CCN(Cc5ccccc5)CC4)cc3C)c2cc1OC [Example 634, N-(1-Benzyl-4-piperidyl)-N′-{4-[(6,7-dimethoxy-4-quinolyl)oxy]-2,5-dimethylphenyl}urea]
> 100 nM | – | 25% | 23% | COc1cc2nccc(Oc3ccc(NC(=O)NC4CCN(Cc5ccccc5)CC4)c(C)c3C)c2cc1OC [Example 635, N-(1-Benzyl-4-piperidyl)-N′-{4-[(6,7-dimethoxy-4-quinolyl)oxy]-2,3-dimethylphenyl}urea]
33 nM | 106 nM | – | – | COc1cc2ncnc(Oc3ccc(NC(=O)NC4CCN(Cc5ccccc5)CC4)cc3)c2cc1OC [Example 636, N-(1-Benzyl-4-piperidyl)-N′-{4-[(6,7-dimethoxy-4-quinazolinyl)oxy]phenyl}urea]
52 nM | 375 nM | – | – | COc1cc2ncnc(Oc3ccc(NC(=O)NC4CCN(Cc5ccccc5)CC4)c(Cl)c3)c2cc1OC [Example 637, N-(1-Benzyl-4-piperidyl)-N′-{2-chloro-4-[(6,7-dimethoxy-4-quinazolinyl)oxy]phenyl}urea]

IC50 (PDGF-Ra) | IC50 (c-kit) | inhibition at 0.1 µM (PDGF-Ra) | inhibition at 1 µM (c-kit) | SMILES
> 100 nM | – | 43% | 16% | COc1cc2nccc(Oc3ccc(NC(=O)NC4CCN(Cc5ccccc5)CC4)c([N+](=O)[O-])c3)c2cc1OC [Example 638, N-(1-Benzyl-4-piperidyl)-N′-{4-[(6,7-dimethoxy-4-quinolyl)oxy]-2-nitrophenyl}urea]
> 100 nM | – | 29% | 12% | COc1cc2nccc(Oc3ccc(NC(=O)NC4CCN(Cc5ccccc5)CC4)cc3F)c2cc1OC [Example 639, N-(1-Benzyl-4-piperidyl)-N′-{4-[(6,7-dimethoxy-4-quinolyl)oxy]-3-fluorophenyl}urea]
35 nM | 254 nM | – | – | COc1cc2ncnc(Oc3ccc(NC(=O)NC4CCN(Cc5ccccc5)CC4)c([N+](=O)[O-])c3)c2cc1OC [Example 640, N-(1-Benzyl-4-piperidyl)-N′-{4-[(6,7-dimethoxy-4-quinazolinyl)oxy]-2-nitrophenyl}urea]
28 nM | 293 nM | – | – | COc1cc(Oc2ncnc3cc(OC)c(OC)cc23)ccc1NC(=O)NC1CCN(Cc2ccccc2)CC1 [Example 641, N-(1-Benzyl-4-piperidyl)-N′-{4-[(6,7-dimethoxy-4-quinazolinyl)oxy]-2-methoxyphenyl}urea]
> 100 nM | – | 20% | 8% | COc1cc2nccc(Oc3ccc(NC(=O)NC4CCN(Cc5ccccc5)CC4)cc3C)c2cc1OC [Example 642, N-(1-Benzyl-4-piperidyl)-N′-{4-[(6,7-dimethoxy-4-quinolyl)oxy]-3-methylphenyl}urea]
> 100 nM | – | 40% | 2% | COc1cc2nccc(Oc3ccc(NC(=O)NC4CCN(Cc5ccccc5)CC4)c(C)c3)c2cc1OC [Example 643, N-(1-Benzyl-4-piperidyl)-N′-{4-[(6,7-dimethoxy-4-quinolyl)oxy]-2-methylphenyl}urea]
> 100 nM | – | 17% | 14% | COc1cc2nccc(Oc3ccc(NC(=O)NC4CCN(Cc5ccccc5)CC4)cc3Cl)c2cc1OC [Example 644, N-(1-Benzyl-4-piperidyl)-N′-{3-chloro-4-[(6,7-dimethoxy-4-quinolyl)oxy]phenyl}urea]
23 nM | – | – | 32% | CCN(CC)CCNC(=O)Nc1ccc(Oc2ncnc3cc(OC)c(OC)cc23)cc1Cl [Example 645, N-{2-Chloro-4-[(6,7-dimethoxy-4-quinazolinyl)oxy]phenyl}-N′-[2-(diethylamino)ethyl]urea]
11 nM | – | – | 0% | CCN(CC)CCNC(=O)Nc1ccc(Oc2ccnc3cc(OC)c(OC)cc23)cc1[N+](=O)[O-] [Example 646, N-[2-(Diethylamino)ethyl]-N′-{4-[(6,7-dimethoxy-4-quinolyl)oxy]-2-nitrophenyl}urea]
16 nM | 937 nM | – | – | CCN(CC)CCNC(=O)Nc1ccc(Oc2ccnc3cc(OC)c(OC)cc23)c(C)c1 [Example 648, N-[2-(Diethylamino)ethyl]-N′-{4-[(6,7-dimethoxy-4-quinolyl)oxy]-3-methylphenyl}urea]
32 nM | 420 nM | – | – | CCN(CC)CCNC(=O)Nc1ccc(Oc2ccnc3cc(OC)c(OC)cc23)cc1Cl [Example 650, N-{2-Chloro-4-[(6,7-dimethoxy-4-quinolyl)oxy]phenyl}-N′-[2-(diethylamino)ethyl]urea]
40 nM | 808 nM | – | – | CCN(CC)CCNC(=O)Nc1ccc(Oc2ccnc3cc(OC)c(OC)cc23)c(Cl)c1 [Example 651, N-{3-Chloro-4-[(6,7-dimethoxy-4-quinolyl)oxy]phenyl}-N′-[2-(diethylamino)ethyl]urea]
43 nM | 115 nM | – | – | COc1cc2ncnc(Oc3ccc(NC(=O)NCCN4CCOCC4)c([N+](=O)[O-])c3)c2cc1OC [Example 652, N-{4-[(6,7-Dimethoxy-4-quinazolinyl)oxy]-2-nitrophenyl}-N′-(2-morpholinoethyl)urea]
23 nM | 581 nM | – | – | COc1cc2ncnc(Oc3ccc(NC(=O)NCCN4CCCC4)c([N+](=O)[O-])c3)c2cc1OC [Example 653, N-{4-[(6,7-Dimethoxy-4-quinazolinyl)oxy]-2-nitrophenyl}-N′-(2-tetrahydro-1H-1-pyrrolylethyl)urea]
19 nM | 698 nM | – | – | COc1cc2nccc(Oc3ccc(NC(=O)NCCN(C(C)C)C(C)C)cc3)c2cc1OC [Example 654, N-[2-(Diisopropylamino)ethyl]-N′-{4-[(6,7-dimethoxy-4-quinolyl)oxy]phenyl}urea]
